The subject of data set [1] is HL-60. The data set can be described thus: HL-60 differentiation potency. As to conditions: Homo sapiens. The class given is cell-based.
A short description of data set [2]: in vitro. As to conditions: human.

Take `CCN(CC)Cc1ccc(C(C)O[C@@H]2O[C@@H]3O[C@@]4(C)CC[C@H]5[C@H](C)CC[C@@H]([C@H]2C)[C@@]35OO4)cc1O` (stereo partly drawn) [Compound 47, 2-((diethylamino)methyl)-5-(1-(((3R,5aS,6R,8aS, 9R,10R,12R, 12aR)-3,6,9-trimethyldeca-hydro-12H-3,12-epoxy[1,2]dioxepino[4,3-i]isochromen-10-yl)oxy)ethyl) phenol]: the concentration giving a half-maximal response (EC50) in data set [1] is 1.71 µM. In data set [2], this compound displayed a concentration for half-maximal inhibition (IC50) of 4.05 µM.
In turn, `C[C@H]1[C@H](OCc2ccc(S(N)(=O)=O)cc2)O[C@@H]2O[C@@]3(C)CC[C@H]4[C@H](C)CC[C@@H]1[C@@]24OO3` [Compound 49, 4-((((3R,5aS,6R,8aS, 9R,10R,12R, 12aR)-3,6,9-trimethyldeca-hydro-12H-3,12-epoxy[1,2]dioxepino[4,3-i]isochromen-10-yl)oxy)methyl) benzene-sulfonamide] had a 50% effective concentration (EC50) in data set [1] of 2.1 µM. Moreover, the IC50 in data set [2] is at least 20 µM.
In the same order, the values of `COc1cc(CN[C@@H]2O[C@@H]3O[C@@]4(C)CC[C@H]5[C@H](C)CC[C@@H]([C@H]2C)[C@@]35OO4)ccn1` [Compound 50, (3R,5aS,6R,8aS, 9R,10R,12R, 12aR)-N-((2-methoxypyridin-4-yl)methyl)-3,6,9-trimethyldeca-hydro-12H-3,12-epoxy[1,2] dioxepino[4,3-i] isochromen-10-amine] are 2.32 µM and 4.88 µM.
Take `Cc1cc(CO[C@@H]2O[C@@H]3O[C@@]4(C)CC[C@H]5[C@H](C)CC[C@@H]([C@H]2C)[C@@]35OO4)ccc1C(=O)O` [Compound 51, 2-methyl-4-((((3R,5aS,6R,8aS, 9R,10R,12R, 12aR)-3,6,9-trimethyldeca-hydro-12H-3,12-epoxy[1,2]dioxepino[4,3-i]isochromen-10-yl)oxy)methyl) benzoic acid]: the half-maximal effective concentration (EC50) in data set [1] was 2.41 µM. The IC50 in data set [2] was above 20 µM.
`C[C@H]1[C@H](NC2CS(=O)(=O)C2)O[C@@H]2O[C@@]3(C)CC[C@H]4[C@H](C)CC[C@@H]1[C@@]24OO3` [Compound 52, 3-(((3R,5aS,6R,8aS, 9R,10R,12R, 12aR)-3,6,9-trimethyldeca-hydro-12H-3,12-epoxy[1,2]dioxepino[4,3-i]isochromen-10-yl)amino) thietane 1,1-dioxide] had an EC50 in data set [1] of 2.45 µM. The compound also gave an IC50 in data set [2] of 3.55 µM.
Taken in the same sequence, the figures for `C[C@H]1[C@H](OCCS(C)(=O)=O)O[C@@H]2O[C@@]3(C)CC[C@H]4[C@H](C)CC[C@@H]1[C@@]24OO3` [Compound 53, (3R,5aS,6R,8aS, 9R,10R,12R, 12aR)-3,6,9-trimethyl-10-(2-(methylsulfonyl)ethoxy)deca-hydro-12H-3,12-epoxy[1,2] dioxepino[4,3-i] isochromene] were 2.73 µM and above 20 µM.
The compound `COc1cc(CO[C@@H]2O[C@@H]3O[C@@]4(C)CC[C@H]5[C@H](C)CC[C@@H]([C@H]2C)[C@@]35OO4)ccc1C(=O)O` [Compound 54, 2-methoxy-4-((((3R,5aS,6R,8aS, 9R,10R,12R, 12aR)-3,6,9-trimethyldeca-hydro-12H-3,12-epoxy[1,2]dioxepino[4,3-i]isochromen-10-yl)oxy)methyl) benzoic acid] had a half-maximal effective concentration (EC50) in data set [1] of 2.82 µM. In addition, in data set [2], the IC50 is above 20 µM.
As to `C[C@H]1[C@@H](OCC23CC(C(=O)O)(C2)C3)O[C@@H]2O[C@@]3(C)CC[C@H]4[C@H](C)CC[C@@H]1[C@@]24OO3` [Compound 55, 3-((((3R,5aS,6R,8aS, 9R,10S,12R, 12aR)-3,6,9-trimethyldeca-hydro-12H-3,12-epoxy[1,2]dioxepino[4,3-i]isochromen-10-yl)oxy)methyl) bicyclo[1.1.1] pentane-1-carboxylic acid], a half-maximal response in data set [1] (EC50) required 7.4 µM. The IC50 in data set [2] was above 20 µM.
Taken in the same sequence, the figures for `C[C@H]1[C@@H](Nc2cccc(F)c2)O[C@@H]2O[C@@]3(C)CC[C@H]4[C@H](C)CC[C@@H]1[C@@]24OO3` [Compound 56, (3R,5aS,6R,8aS, 9R,10S,12R, 12aR)-N-(3-fluorophenyl)-3,6,9-trimethyldeca-hydro-12H-3,12-epoxy[1,2] dioxepino[4,3-i] isochromen-10-amine] were 8.19 µM and 11 µM.
For the compound `C[C@H]1[C@H](N[C@@H](C)c2ccc(S(C)(=O)=O)cc2)O[C@@H]2O[C@@]3(C)CC[C@H]4[C@H](C)CC[C@@H]1[C@@]24OO3` [Compound 57, (3R,5aS,6R,8aS, 9R,10R,12R, 12aR)-3,6,9-trimethyl-N-((S)-1-(4-(methyl-sulfonyl)phenyl)ethyl)decahydro-12H-3,12-epoxy[1,2] dioxepino[4,3-i] isochromen-10-amine], in data set [1], a half-maximal effect (EC50) was put at 8.49 µM. The compound further gave an IC50 in data set [2] of 9.89 µM.
With `C[C@H]1[C@H](NCc2ccc(S(C)(=O)=O)cc2)O[C@@H]2O[C@@]3(C)CC[C@H]4[C@H](C)CC[C@@H]1[C@@]24OO3` [Compound 58, (3R,5aS,6R,8aS, 9R,10R,12R, 12aR)-3,6,9-trimethyl-N-(4-(methylsulfonyl)benzyl) decahydro-12H-3,12-epoxy[1,2] dioxepino[4,3-i] isochromen-10-amine], the midpoint of the response in data set [1], the EC50, lay at 9.12 µM. The half-inhibitory concentration (IC50) in data set [2] turned out to be 8.34 µM.
`C[C@H]1[C@H](NCCS(=O)(=O)N(C)C)O[C@@H]2O[C@@]3(C)CC[C@H]4[C@H](C)CC[C@@H]1[C@@]24OO3` [Compound 59, N,N-dimethyl-2-(((3R,5aS,6R, 8aS,9R,10R,12R, 12aR)-3,6,9-trimethyldeca-hydro-12H-3,12-epoxy[1,2]dioxepino[4,3-i]isochromen-10-yl)amino) ethane-1-sulfonamide] registered a concentration giving a half-maximal response (EC50) in data set [1] of 9.63 µM. The compound further returned an IC50 in data set [2] of 11 µM.
`C[C@H]1[C@H](N2CCC(C(=O)NC3COC3)CC2)O[C@@H]2O[C@@]3(C)CC[C@H]4[C@H](C)CC[C@@H]1[C@@]24OO3` [Compound 60, N-(oxetan-3-yl)-1-((3R,5aS, 6R,8aS,9R,10R, 12R,12aR)-3,6,9-trimethyldeca-hydro-12H-3,12-epoxy[1,2]dioxepino[4,3-i]isochromen-10-yl)piperidine-4-carboxamide]: the midpoint of the response in data set [1], the EC50, lay at 11.2 µM. This compound also gave an IC50 in data set [2] of 11.8 µM.
For the compound `C[C@H]1[C@H](OCc2ccc(C(=O)O)o2)O[C@@H]2O[C@@]3(C)CC[C@H]4[C@H](C)CC[C@@H]1[C@@]24OO3` [Compound 61, 5-((((3R,5aS,6R, 8aS,9R,10R,12R, 12aR)-3,6,9-trimethyldeca-hydro-12H-3,12-epoxy[1,2]dioxepino[4,3-i]isochromen-10-yl)oxy)methyl) furan-2-carboxylic acid], in data set [1], the EC50 was 13.4 µM. For the same compound, the half-inhibitory concentration (IC50) in data set [2] was above 20 µM.
As to `C[C@H]1[C@H](CCNS(C)(=O)=O)O[C@@H]2O[C@@]3(C)CC[C@H]4[C@H](C)CC[C@@H]1[C@@]24OO3` [Compound 62, N-(2-((3R,5aS,6R,8aS, 9R,10S,12R, 12aR)-3,6,9-trimethyldeca-hydro-12H-3,12-epoxy[1,2]dioxepino[4,3-i]isochromen-10-yl)ethyl) methane-sulfonamide], in data set [1], the EC50 is 16.4 µM. In data set [2], this compound yielded a concentration for half-maximal inhibition (IC50) above 20 µM.
With `C[C@H]1[C@H](N2CCCCC2)O[C@@H]2O[C@@]3(C)CC[C@H]4[C@H](C)CC[C@@H]1[C@@]24OO3` [Compound 63, 1-((3R,5aS,6R,8aS, 9R,10R,12R, 12aR)-3,6,9-trimethyldeca-hydro-12H-3,12-epoxy[1,2]dioxepino[4,3-i]isochromen-10-yl)piperidine], in data set [1], the EC50 was above 20 µM. Besides, in data set [2], the IC50 was above 20 µM.
Compound `C[C@H]1[C@H](N2CCC(C(=O)O)CC2)O[C@@H]2O[C@@]3(C)CC[C@H]4[C@H](C)CC[C@@H]1[C@@]24OO3` [Compound 64, 1-((3R,5aS,6R,8aS, 9R,10R,12R, 12aR)-3,6,9-trimethyldeca-hydro-12H-3,12-epoxy[1,2]dioxepino[4,3-i]isochromen-10-yl)piperidine-4-carboxylic acid] had an EC50 in data set [1] above 20 µM. Besides, in data set [2], the IC50 is above 20 µM.
`C[C@H]1[C@H](N2CCC(C(=O)NC3CS(=O)(=O)C3)CC2)O[C@@H]2O[C@@]3(C)CC[C@H]4[C@H](C)CC[C@@H]1[C@@]24OO3` [Compound 65, N-(1,1-dioxidothietan-3-yl)-1-((3R,5aS,6R,8aS, 9R,10R,12R, 12aR)-3,6,9-trimethyldeca-hydro-12H-3,12-epoxy[1,2]dioxepino[4,3-i]isochromen-10-yl)piperidine-4-carboxamide]: the 50% effective concentration (EC50) in data set [1] is above 20 µM. Also, the 50% inhibitory concentration (IC50) in data set [2] was above 20 µM.
In turn, `C[C@H]1[C@@H](CCN2CCC(C(=O)O)CC2)O[C@@H]2O[C@@]3(C)CC[C@H]4[C@H](C)CC[C@@H]1[C@@]24OO3` [Compound 66, 1-(2-((3R,5aS,6R, 8aS,9R,10R,12R, 12aR)-3,6,9-trimethyldeca-hydro-12H-3,12-epoxy[1,2]dioxepino[4,3-i]isochromen-10-yl)ethyl) piperidine-4-carboxylic acid] displayed an EC50 in data set [1] above 20 µM. For the same compound, in data set [2], the half-inhibitory concentration (IC50) was above 20 µM.
Compound `CNC(=O)N1CCN([C@@H]2O[C@@H]3O[C@@]4(C)CC[C@H]5[C@H](C)CC[C@@H]([C@H]2C)[C@@]35OO4)CC1` [Compound 67, N-methyl-4-((3R,5aS,6R,8aS, 9R,10R,12R, 12aR)-3,6,9-trimethyldeca-hydro-12H-3,12-epoxy[1,2]dioxepino[4,3-i]isochromen-10-yl)piperazine-1-carboxamide] showed a half-maximal effective concentration (EC50) in data set [1] above 20 µM. Also, the concentration for half-maximal inhibition (IC50) in data set [2] was above 20 µM.
In data set [1], `C[C@H]1[C@@H](CCN2CC(C(=O)O)C2)O[C@@H]2O[C@@]3(C)CC[C@H]4[C@H](C)CC[C@@H]1[C@@]24OO3` [Compound 68, 1-(2-((3R,5aS,6R,8aS, 9R,10R,12R, 12aR)-3,6,9-trimethyldeca-hydro-12H-3,12-epoxy[1,2]dioxepino[4,3-i]isochromen-10-yl)ethyl) azetidine-3-carboxylic acid] showed a 50% effective concentration (EC50) above 20 µM. In data set [2], this compound displayed an IC50 above 20 µM.
With `C[C@H]1[C@H](N2CC[C@@H](C(=O)O)C2)O[C@@H]2O[C@@]3(C)CC[C@H]4[C@H](C)CC[C@@H]1[C@@]24OO3` [Compound 69, (R)-1-((3R,5aS,6R,8aS, 9R,10R,12R, 12aR)-3,6,9-trimethyldeca-hydro-12H-3,12-epoxy[1,2]dioxepino[4,3-i]isochromen-10-yl)pyrrolidine-3-carboxylic acid], the EC50 in data set [1] is above 20 µM. Also, the IC50 in data set [2] was above 20 µM.

As a reminder, the EC50 is the concentration that produces a half-maximal response. Read a low EC50 as greater potency. Broadly, the IC50 is the concentration needed to halve the response being measured. Higher therefore signals weaker potency.

Source of the values: US20260242391A1 (priority 2023, published 2026).
